Data: PMC9329436, “Optimization of the 4-anilinoquin(az)oline scaffold as epidermal growth factor receptor (EGFR) inhibitors for chordoma utilizing a toxicology profiling assay platform” (Scientific Reports, 2022)
Like-named read-outs stand apart in the source and are kept apart here.

How the values were obtained:
Type in all cases: biochemical
[1] = biological target: 320 wild-type protein kinases (Homo sapiens, UniProt P04049, Y340D/Y341D); details: kinase RAF1 Y340D/Y341D (untagged), singlicate
Text: (§1) Table S4. Profiling of two compounds at two concentrations against 320 wild-type protein kinases; singlicate measurement; Residual activities (% of control).

[2] = biological target: 320 wild-type protein kinases (Homo sapiens, UniProt P05771); details: singlicate
Text: as §1

[3] = biological target: 320 wild-type protein kinases (Homo sapiens, UniProt P22455); details: singlicate
Text: as §1

[4] = biological target: 320 wild-type protein kinases (Homo sapiens, UniProt P27037); details: ACV-R2A, singlicate
Text: as §1

[5] = biological target: 320 wild-type protein kinases (Homo sapiens, UniProt P49336); details: CDK8/CycC, singlicate
Text: as §1

[6] = biological target: 320 wild-type protein kinases (Homo sapiens, UniProt Q00536); details: CDK16/CycY, singlicate
Text: as §1

[7] = biological target: 320 wild-type protein kinases (Homo sapiens, UniProt Q13557); details: CAMK2D, singlicate
Text: as §1

[8] = biological target: 320 wild-type protein kinases (Homo sapiens, UniProt Q15418); details: kinase RPS6KA1, singlicate
Text: as §1

[9] = biological target: T1, 320 wild-type protein kinases (Homo sapiens, UniProt Q8TF76); details: singlicate
T1 sequence (Q8TF76 1-798): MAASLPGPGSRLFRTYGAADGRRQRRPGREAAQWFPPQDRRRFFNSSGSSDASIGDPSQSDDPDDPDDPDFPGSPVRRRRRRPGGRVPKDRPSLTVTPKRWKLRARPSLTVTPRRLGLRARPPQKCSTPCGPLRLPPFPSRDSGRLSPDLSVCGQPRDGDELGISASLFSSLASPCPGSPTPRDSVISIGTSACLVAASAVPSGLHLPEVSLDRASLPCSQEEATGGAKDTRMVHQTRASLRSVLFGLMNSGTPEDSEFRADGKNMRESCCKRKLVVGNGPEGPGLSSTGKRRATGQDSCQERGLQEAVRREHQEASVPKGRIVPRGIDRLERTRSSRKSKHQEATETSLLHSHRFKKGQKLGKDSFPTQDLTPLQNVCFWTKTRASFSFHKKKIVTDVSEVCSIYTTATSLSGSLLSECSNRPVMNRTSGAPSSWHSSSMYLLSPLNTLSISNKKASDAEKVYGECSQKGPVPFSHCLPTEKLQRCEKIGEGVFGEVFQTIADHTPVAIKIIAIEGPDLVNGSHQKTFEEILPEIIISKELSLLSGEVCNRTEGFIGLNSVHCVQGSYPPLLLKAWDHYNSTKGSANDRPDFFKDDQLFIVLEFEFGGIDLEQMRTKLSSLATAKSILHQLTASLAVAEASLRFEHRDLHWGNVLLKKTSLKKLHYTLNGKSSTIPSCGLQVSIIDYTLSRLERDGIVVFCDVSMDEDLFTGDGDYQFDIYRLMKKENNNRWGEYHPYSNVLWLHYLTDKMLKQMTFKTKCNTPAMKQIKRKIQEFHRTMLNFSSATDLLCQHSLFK
Text: as §1

[10] = biological target: T2, 320 wild-type protein kinases (Homo sapiens, UniProt Q96BR1); details: kinase SGK3, singlicate
T2 sequence (Q96BR1 1-496): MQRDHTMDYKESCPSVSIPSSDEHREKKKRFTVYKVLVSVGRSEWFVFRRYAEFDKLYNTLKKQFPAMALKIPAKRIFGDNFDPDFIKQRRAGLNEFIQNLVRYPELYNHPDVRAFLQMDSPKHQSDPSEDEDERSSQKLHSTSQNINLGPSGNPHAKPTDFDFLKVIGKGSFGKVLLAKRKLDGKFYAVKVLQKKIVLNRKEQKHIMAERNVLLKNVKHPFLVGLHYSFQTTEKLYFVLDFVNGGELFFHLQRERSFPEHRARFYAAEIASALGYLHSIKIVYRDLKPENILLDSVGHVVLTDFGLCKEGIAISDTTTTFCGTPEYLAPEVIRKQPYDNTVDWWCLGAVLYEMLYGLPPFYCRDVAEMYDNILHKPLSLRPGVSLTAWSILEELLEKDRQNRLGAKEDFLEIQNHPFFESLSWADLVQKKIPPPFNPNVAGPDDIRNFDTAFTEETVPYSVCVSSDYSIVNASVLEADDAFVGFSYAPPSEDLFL
Text: as §1

[11] = biological target: T3, 320 wild-type protein kinases (Homo sapiens, UniProt Q9BXA7); details: kinase TSSK1, singlicate
T3 sequence (Q9BXA7 1-367): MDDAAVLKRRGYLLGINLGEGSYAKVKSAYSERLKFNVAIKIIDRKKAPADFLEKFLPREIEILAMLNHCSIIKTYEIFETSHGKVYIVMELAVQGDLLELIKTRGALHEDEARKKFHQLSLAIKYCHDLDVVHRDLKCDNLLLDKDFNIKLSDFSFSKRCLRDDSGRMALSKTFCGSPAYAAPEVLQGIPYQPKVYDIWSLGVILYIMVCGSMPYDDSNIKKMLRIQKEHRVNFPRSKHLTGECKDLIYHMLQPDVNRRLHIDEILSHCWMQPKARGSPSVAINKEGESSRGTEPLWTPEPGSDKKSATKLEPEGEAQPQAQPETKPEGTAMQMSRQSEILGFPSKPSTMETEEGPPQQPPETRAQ
Text: as §1

[12] = biological target: 320 wild-type protein kinases (Homo sapiens, UniProt Q9HCP0); details: singlicate
Text: as §1

[13] = biological target: 320 wild-type protein kinases (Homo sapiens, UniProt Q9NYL2); details: kinase ZAK, singlicate
Text: as §1

320 wild-type protein kinases (Homo sapiens, UniProt Q9HCP0), sequence (Q9HCP0 whole entry): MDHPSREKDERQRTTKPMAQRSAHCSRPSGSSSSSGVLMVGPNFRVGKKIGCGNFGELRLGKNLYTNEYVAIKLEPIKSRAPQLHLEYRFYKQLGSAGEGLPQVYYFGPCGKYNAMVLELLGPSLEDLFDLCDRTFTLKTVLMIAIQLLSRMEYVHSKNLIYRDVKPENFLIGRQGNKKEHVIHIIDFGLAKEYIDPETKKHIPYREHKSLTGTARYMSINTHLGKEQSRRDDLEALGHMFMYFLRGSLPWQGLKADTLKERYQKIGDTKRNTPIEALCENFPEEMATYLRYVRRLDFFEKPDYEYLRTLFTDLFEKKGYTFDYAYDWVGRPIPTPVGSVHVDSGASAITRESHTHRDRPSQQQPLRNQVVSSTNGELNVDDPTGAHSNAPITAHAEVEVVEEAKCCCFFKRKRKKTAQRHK
320 wild-type protein kinases (Homo sapiens, UniProt Q13557), sequence (Q13557 whole entry): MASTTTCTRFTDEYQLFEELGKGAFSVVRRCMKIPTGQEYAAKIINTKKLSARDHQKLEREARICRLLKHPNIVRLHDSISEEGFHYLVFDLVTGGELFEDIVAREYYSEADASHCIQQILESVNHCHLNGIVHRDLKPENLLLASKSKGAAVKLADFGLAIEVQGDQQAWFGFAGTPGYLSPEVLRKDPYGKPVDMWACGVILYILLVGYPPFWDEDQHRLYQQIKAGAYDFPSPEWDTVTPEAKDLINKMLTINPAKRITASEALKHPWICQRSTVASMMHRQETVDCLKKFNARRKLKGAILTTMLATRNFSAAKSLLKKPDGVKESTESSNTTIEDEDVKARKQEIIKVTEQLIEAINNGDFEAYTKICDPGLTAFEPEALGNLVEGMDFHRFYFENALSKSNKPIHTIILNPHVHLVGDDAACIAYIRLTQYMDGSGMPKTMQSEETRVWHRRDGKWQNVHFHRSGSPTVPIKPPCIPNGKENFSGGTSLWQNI
320 wild-type protein kinases (Homo sapiens, UniProt P22455), sequence (P22455 22-802): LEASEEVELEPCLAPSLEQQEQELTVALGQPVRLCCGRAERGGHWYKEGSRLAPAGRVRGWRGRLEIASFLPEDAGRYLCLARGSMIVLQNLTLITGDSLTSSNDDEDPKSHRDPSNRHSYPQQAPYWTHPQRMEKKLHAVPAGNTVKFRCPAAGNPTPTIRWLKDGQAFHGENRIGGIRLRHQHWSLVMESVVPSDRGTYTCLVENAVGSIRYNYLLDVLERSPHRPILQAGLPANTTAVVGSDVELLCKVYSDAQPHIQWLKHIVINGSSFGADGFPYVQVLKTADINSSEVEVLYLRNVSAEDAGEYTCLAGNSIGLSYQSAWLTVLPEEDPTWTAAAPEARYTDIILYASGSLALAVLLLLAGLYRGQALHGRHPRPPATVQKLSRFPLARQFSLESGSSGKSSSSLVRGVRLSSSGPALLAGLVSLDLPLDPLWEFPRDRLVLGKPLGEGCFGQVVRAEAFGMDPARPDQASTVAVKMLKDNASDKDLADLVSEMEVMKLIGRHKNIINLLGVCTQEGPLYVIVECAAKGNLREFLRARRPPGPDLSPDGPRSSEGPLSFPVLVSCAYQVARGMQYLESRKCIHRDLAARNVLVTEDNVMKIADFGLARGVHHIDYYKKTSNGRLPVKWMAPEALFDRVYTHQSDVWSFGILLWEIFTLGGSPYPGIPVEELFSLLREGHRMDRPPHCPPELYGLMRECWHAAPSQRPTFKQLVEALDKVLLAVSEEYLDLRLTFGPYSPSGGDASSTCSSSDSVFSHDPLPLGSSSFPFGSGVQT
320 wild-type protein kinases (Homo sapiens, UniProt P49336), sequence (P49336 whole entry): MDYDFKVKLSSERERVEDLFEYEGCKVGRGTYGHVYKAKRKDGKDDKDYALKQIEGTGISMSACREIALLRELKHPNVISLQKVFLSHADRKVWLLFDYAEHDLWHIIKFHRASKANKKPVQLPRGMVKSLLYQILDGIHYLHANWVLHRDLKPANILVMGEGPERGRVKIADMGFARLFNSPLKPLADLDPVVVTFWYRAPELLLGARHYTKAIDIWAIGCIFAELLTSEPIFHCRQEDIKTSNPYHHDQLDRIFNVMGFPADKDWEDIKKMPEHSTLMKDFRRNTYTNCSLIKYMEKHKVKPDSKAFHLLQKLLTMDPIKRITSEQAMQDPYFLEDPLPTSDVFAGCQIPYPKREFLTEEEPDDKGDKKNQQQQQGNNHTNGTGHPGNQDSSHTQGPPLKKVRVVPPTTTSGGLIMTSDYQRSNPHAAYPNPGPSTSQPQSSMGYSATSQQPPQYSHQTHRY
320 wild-type protein kinases (Homo sapiens, UniProt Q15418), sequence (Q15418 whole entry): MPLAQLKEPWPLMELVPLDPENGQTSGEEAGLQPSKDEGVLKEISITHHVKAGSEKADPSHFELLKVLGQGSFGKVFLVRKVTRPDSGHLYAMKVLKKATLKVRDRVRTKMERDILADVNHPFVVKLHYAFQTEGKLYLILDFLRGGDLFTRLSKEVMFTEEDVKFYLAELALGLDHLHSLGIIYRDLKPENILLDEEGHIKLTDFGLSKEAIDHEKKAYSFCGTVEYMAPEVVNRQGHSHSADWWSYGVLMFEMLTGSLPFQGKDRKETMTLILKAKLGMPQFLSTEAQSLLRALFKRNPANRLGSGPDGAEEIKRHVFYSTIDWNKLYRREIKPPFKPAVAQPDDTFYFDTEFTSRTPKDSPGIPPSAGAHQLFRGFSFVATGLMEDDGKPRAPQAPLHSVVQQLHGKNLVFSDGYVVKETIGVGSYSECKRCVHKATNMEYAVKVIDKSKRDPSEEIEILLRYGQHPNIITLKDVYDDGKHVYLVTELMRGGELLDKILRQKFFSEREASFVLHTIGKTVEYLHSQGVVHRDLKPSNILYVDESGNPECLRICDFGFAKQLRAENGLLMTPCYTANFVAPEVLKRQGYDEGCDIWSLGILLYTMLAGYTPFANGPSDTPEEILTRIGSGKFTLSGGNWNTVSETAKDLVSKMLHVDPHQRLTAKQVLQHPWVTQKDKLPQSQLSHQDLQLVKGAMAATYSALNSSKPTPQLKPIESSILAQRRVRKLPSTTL
320 wild-type protein kinases (Homo sapiens, UniProt P05771), sequence (P05771 whole entry): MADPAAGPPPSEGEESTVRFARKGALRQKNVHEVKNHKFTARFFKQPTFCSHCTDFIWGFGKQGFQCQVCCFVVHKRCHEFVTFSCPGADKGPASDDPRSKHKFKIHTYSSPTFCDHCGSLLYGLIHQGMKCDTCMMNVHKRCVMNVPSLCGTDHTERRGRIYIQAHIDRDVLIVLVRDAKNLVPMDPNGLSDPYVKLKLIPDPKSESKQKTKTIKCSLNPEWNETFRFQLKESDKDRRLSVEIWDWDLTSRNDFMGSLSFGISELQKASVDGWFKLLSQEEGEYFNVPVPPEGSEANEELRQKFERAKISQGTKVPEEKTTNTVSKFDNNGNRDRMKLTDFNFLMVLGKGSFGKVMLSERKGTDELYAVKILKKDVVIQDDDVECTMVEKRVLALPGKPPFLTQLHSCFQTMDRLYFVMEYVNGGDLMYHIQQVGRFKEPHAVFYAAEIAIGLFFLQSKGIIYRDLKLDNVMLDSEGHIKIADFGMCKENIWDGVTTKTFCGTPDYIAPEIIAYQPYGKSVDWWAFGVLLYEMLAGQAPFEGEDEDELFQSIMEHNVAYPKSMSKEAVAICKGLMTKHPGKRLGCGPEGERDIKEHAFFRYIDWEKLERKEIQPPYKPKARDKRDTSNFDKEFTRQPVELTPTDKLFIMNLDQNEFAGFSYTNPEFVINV
320 wild-type protein kinases (Homo sapiens, UniProt Q9NYL2), sequence (Q9NYL2 whole entry): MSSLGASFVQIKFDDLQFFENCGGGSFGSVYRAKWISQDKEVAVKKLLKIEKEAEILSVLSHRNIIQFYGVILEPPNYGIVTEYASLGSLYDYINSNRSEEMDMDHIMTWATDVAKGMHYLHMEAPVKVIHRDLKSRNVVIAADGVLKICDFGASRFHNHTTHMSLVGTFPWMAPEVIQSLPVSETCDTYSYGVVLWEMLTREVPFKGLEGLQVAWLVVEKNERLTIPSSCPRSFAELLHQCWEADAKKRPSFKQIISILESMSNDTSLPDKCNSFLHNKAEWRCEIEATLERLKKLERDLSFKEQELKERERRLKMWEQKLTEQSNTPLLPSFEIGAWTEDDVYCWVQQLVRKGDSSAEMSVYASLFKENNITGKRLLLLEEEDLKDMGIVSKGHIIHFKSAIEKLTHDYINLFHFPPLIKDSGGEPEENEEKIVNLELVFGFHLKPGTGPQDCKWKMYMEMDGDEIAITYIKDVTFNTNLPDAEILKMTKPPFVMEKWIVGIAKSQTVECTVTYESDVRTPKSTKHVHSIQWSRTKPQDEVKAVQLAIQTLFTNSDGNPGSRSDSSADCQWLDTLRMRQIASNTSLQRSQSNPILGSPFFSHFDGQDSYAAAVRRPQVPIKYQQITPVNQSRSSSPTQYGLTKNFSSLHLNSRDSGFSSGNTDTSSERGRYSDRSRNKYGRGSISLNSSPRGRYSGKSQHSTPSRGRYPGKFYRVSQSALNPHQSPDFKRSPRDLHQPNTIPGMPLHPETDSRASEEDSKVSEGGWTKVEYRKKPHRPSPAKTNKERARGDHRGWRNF
320 wild-type protein kinases (Homo sapiens, UniProt Q00536), sequence (Q00536 whole entry): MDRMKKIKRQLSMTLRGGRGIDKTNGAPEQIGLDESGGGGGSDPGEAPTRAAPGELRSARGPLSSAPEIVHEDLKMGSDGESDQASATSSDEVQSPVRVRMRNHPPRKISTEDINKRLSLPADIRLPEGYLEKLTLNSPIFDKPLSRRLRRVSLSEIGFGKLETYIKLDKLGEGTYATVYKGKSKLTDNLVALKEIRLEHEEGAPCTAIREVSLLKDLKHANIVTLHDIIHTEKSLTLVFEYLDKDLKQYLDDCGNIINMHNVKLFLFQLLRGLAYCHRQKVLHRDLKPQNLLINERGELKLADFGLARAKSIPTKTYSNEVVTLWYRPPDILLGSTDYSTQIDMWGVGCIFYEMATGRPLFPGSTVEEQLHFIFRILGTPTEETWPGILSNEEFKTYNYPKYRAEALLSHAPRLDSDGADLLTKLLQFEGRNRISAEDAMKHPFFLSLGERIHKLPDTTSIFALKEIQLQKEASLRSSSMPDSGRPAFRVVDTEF

| SMILES | Residual activity, RAF1 Y340D/Y341D (untagged) ([1]; assay conc. 1.0E-06 M) | Residual activity, RAF1 Y340D/Y341D (untagged) ([1]; assay conc. 1.0E-07 M) | Residual activity ([2]; PKC-beta1, 1.0E-06 M) | Residual activity ([2]; PKC-beta1, 1.0E-07 M) | Residual activity ([3]; FGF-R4, 1.0E-06 M) | Residual activity ([3]; FGF-R4, 1.0E-07 M) | Residual activity ([4]; 1.0E-06 M) | Residual activity ([4]; 1.0E-07 M) | Residual activity ([5]; 1.0E-06 M) | Residual activity ([5]; 1.0E-07 M) | Residual activity ([6]; 1.0E-06 M) | Residual activity ([6]; 1.0E-07 M) | Residual activity ([7]; 1.0E-06 M) | Residual activity ([7]; 1.0E-07 M) | Residual activity, RPS6KA1 ([8]; assay conc. 1.0E-06 M) | Residual activity, RPS6KA1 ([8]; assay conc. 1.0E-07 M) | Residual activity ([9]; GSG2, 1.0E-06 M) | Residual activity ([9]; GSG2, 1.0E-07 M) | Residual activity, SGK3 ([10]; assay conc. 1.0E-06 M) | Residual activity, SGK3 ([10]; assay conc. 1.0E-07 M) | other results |
| --- | --- | --- | --- | --- | --- | --- | --- | --- | --- | --- | --- | --- | --- | --- | --- | --- | --- | --- | --- | --- | --- |
| C#Cc1cc(Nc2ncnc3cc(I)ccc23)ccc1Cl [Compound 41] | 99 % of control | 95 % of control | 96 % of control | 110 % of control | 88 % of control | 96 % of control | 92 % of control | 96 % of control | 92 % of control | 91 % of control | 84 % of control | 84 % of control | 89 % of control | 103 % of control | 99 % of control | 103 % of control | 112 % of control | 113 % of control | 86 % of control | 91 % of control | Residual activity, TSSK1 ([11]; assay conc. 1.0E-06 M): 105 % of control; Residual activity, TSSK1 ([11]; assay conc. 1.0E-07 M): 142 % of control; Residual activity ([12]; CK1-gamma1, 1.0E-06 M): 123 % of control; Residual activity ([12]; CK1-gamma1, 1.0E-07 M): 125 % of control; Residual activity, ZAK ([13]; assay conc. 1.0E-06 M): 85 % of control; Residual activity, ZAK ([13]; assay conc. 1.0E-07 M): 98 % of control |
| C#Cc1cc(Nc2ncnc3cc(OC)c(OC)cc23)ccc1Cl [Compound 45] | 88 % of control | 83 % of control | 88 % of control | 95 % of control | 96 % of control | 100 % of control | 96 % of control | 101 % of control | 95 % of control | 97 % of control | 90 % of control | 86 % of control | 95 % of control | 91 % of control | 74 % of control | 88 % of control | 109 % of control | 115 % of control | 89 % of control | 93 % of control | Residual activity, TSSK1 ([11]; assay conc. 1.0E-06 M): 111 % of control; Residual activity, TSSK1 ([11]; assay conc. 1.0E-07 M): 127 % of control; Residual activity ([12]; CK1-gamma1, 1.0E-06 M): 100 % of control; Residual activity ([12]; CK1-gamma1, 1.0E-07 M): 112 % of control; Residual activity, ZAK ([13]; assay conc. 1.0E-06 M): 80 % of control; Residual activity, ZAK ([13]; assay conc. 1.0E-07 M): 100 % of control |
